The values below are quoted from earlier work in US6777573B1, “Method for the synthesis of ceralure B1” (The United States of America as represented by the …, priority 2002, dated 2004).

Entries after “also recorded” stand apart in the source; their conditions may differ.

This data set relates to Ceratitis capitata (Mediterranean fruit fly, medfly).

On to `CCOC(=O)C1CC(I)CCC1C` (mixture of isomers) [ceralure B1, ethyl cis,trans-5-iodo-2-methylcyclohexane-1-carboxylate], for which the “relative attractiveness among ceralure isomers” value (isomers separated by HPLC, study of 4 trans isomers (Warthen et al. 1994)) is “most active isomer; also recorded: superior to the other three isomers”. As to `CCOC(=O)C1CC(I)CCC1C` (single isomer, unassigned; (-)) [(−)ceralure B1, reference compound], under “optically active form versus racemic ceralure B1 (Raw et al.)”, the “higher attractancy than the racemate” value was “about 30%”.
